{"source": "patent US20230150960A1", "about": "“COMPOSITIONS AND METHODS OF USING CYANINE DYES TO TARGET CANCER AND MITOCHONDRIA” (Thomas Jefferson University, priority 2020, published 2023)", "key": {"MIA-PaCa2 cancer cells": {"system": "MIA-PaCa2 cancer cells", "assay": "Combination of JAC-B2 or JAC-R2 with another drug, cell survival by Pico Green, BLISS/HSA plot analyses", "type": "cell-based", "method": "(§1) We analyzed cell survival using Pico Green and determined the combinational effects through BLISS/HSA plot analyses.\nMIA-PaCa2 pancreatic cancer cells were purchased from the American Type Culture Collection (ATCC, Manassas, VA, USA) and grown in normal culture media (DMEM media, 10% FBS, 1% L-glutamine, 1% Penicillin-Streptomycin) at normal conditions (37° C., 5% CO2). Cells were trypsinized and plated at 1 thousand cells per well and in 96-well plates. […] Cell viability was assessed using pico-green dsDNA measurement and IC50S were calculated using GraphPad® (GraphPad Software, San Diego, CA, USA) by employing normalized nonlinear regression models. A summary of the combined efficacy of a compound of Formula I and an additional therapeutic agent is show in Table 2."}, "HT29 cancer cells": {"system": "HT29 cancer cells", "assay": "Combination of JAC-B2 with another drug, cell survival by Pico Green, BLISS/HSA plot analyses", "type": "cell-based", "conditions": "combined with Cobimetinib, 5 days, FIG. 7O", "text": "as §1"}, "ASPC1 cancer cells": {"system": "ASPC1 cancer cells", "assay": "Combination of JAC-B2 with another drug, cell survival by Pico Green, BLISS/HSA plot analyses", "type": "cell-based", "conditions": "combined with PDDX04, 5 days, FIG. 7P", "text": "as §1"}, "[1]": {"assay": "Solubility of BSA-containing formulations (post vortexing, 30 min and overnight at 18° C.)", "type": "physicochemical", "conditions": "BSA-containing formulation, aqueous with cosolvent or surfactant or cyclodextrin, compound 2 mg/mL; for solubility at 30 min / solubility: 18 °C; for solubility at 30 min: after 30 minutes incubation at 18° C.; for solubility: overnight incubation at 18° C.; for solubility at 30 s: post vortexing", "method": "(§2) Vortexing was conducted using a Denville Vortexer 59 (Denville Scientific Inc.), at maximum speed for 30 seconds. As used herein, the term overnight refers to a period lasting at least about 12-24 hours."}, "[2]": {"assay": "Solubility of glycerol-containing formulations (post vortexing, 30 min and overnight at 18° C.)", "type": "physicochemical", "conditions": "glycerol-containing formulation, compound 2 mg/mL; for solubility at 30 min / solubility: 18 °C; for solubility at 30 min: after 30 minutes incubation at 18° C.; for solubility: overnight incubation at 18° C.; for solubility at 30 s: post vortexing", "method": "as §2, with “Tables 3A, 3B, and 3C describe solubility experiments conducted with the indicated compounds under the listed conditions. Vortexing” for “Vortexing”"}, "[3]": {"conditions": "combined with Azacitidine, 5 days, MIA-PaCa2, FIG. 7J (JAC-B2), FIG. 7L (JAC-R2)"}, "[4]": {"conditions": "combined with Decitabine, 5 days, MIA-PaCa2, FIG. 7I (JAC-B2), FIG. 7K (JAC-R2)"}, "[5]": {"conditions": "combined with Paclitaxel, 5 days, FIG. 7F (JAC-B2), FIG. 7M (JAC-R2)"}}, "note": "Entries after “also recorded” stand apart in the source; their conditions may differ.", "data": [{"smiles": "CCN1/C(=C/C=C/C=C/c2oc3ccccc3[n+]2CC)Oc2ccccc21", "note": "[JAC-R2, 3′,3′-Diethyloxadicarbocyanine iodide]", "values": [{"measurement": "Effect of combination", "setting": "MIA-PaCa2 cancer cells; [3]", "result": "Synergistic"}, {"measurement": "Effect of combination", "setting": "MIA-PaCa2 cancer cells; [4]", "result": "Synergistic"}, {"measurement": "Effect of combination", "setting": "MIA-PaCa2 cancer cells; [5]", "result": "Synergistic"}]}, {"smiles": "CCN1/C(=C/C=C/C=C/c2sc3ccccc3[n+]2CC)Sc2ccccc21", "note": "[JAC-B2, Dithiazanine Iodide]", "values": [{"measurement": "Effect of combination", "setting": "HT29 cancer cells", "result": "Synergistic"}, {"measurement": "Effect of combination", "setting": "ASPC1 cancer cells", "result": "Synergistic"}, {"measurement": "Effect of combination", "setting": "MIA-PaCa2 cancer cells; combined with 5-Fluorouracil, 5 days, FIG. 7N", "result": "Synergistic"}, {"measurement": "Effect of combination", "setting": "MIA-PaCa2 cancer cells; combined with Abemaciclib, 5 days, MIA-PaCa2, FIG. 7H", "result": "Synergistic"}, {"measurement": "Effect of combination", "setting": "MIA-PaCa2 cancer cells; combined with Adavosertib, 5 days, MIA-PaCa2, FIG. 7R", "result": "Synergistic"}, {"measurement": "Effect of combination", "setting": "MIA-PaCa2 cancer cells; [3]", "result": "Synergistic"}, {"measurement": "Effect of combination", "setting": "MIA-PaCa2 cancer cells; combined with Colchicine, 5 days, MIA-PaCa2, FIG. 7Q", "result": "Synergistic"}, {"measurement": "Effect of combination", "setting": "MIA-PaCa2 cancer cells; [4]", "result": "Synergistic"}, {"measurement": "Effect of combination", "setting": "MIA-PaCa2 cancer cells; combined with Everolimus, 5 days, MIA-PaCa2, FIG. 7E", "result": "Additive"}, {"measurement": "Effect of combination", "setting": "MIA-PaCa2 cancer cells; combined with Gemcitabine, 5 days, MIA-PaCa2, FIG. 7A", "result": "antagonistic response; also recorded: Antagonistic/Additive"}, {"measurement": "Effect of combination", "setting": "MIA-PaCa2 cancer cells; combined with Hydralazine, no figure", "result": "Antagonistic/Additive"}, {"measurement": "Effect of combination", "setting": "MIA-PaCa2 cancer cells; combined with Irinotecan, 5 days, MIA-PaCa2, FIG. 7C", "result": "Additive"}, {"measurement": "Effect of combination", "setting": "MIA-PaCa2 cancer cells; combined with Metformin, no figure", "result": "Additive"}, {"measurement": "Effect of combination", "setting": "MIA-PaCa2 cancer cells; combined with Methotrexate, 5 days, MIA-PaCa2, FIG. 7B", "result": "Additive"}, {"measurement": "Effect of combination", "setting": "MIA-PaCa2 cancer cells; combined with Olaparib, 5 days, MIA-PaCa2, FIG. 7D", "result": "antagonistic response; also recorded: Antagonistic/Additive"}, {"measurement": "Effect of combination", "setting": "MIA-PaCa2 cancer cells; combined with Oxaliplatin, 5 days, MIA-PaCa2, FIG. 7G", "result": "Synergistic"}, {"measurement": "Effect of combination", "setting": "MIA-PaCa2 cancer cells; [5]", "result": "Synergistic"}, {"measurement": "Effect of combination", "setting": "MIA-PaCa2 cancer cells; combined with VE-821, 5 days, MIA-PaCa2, FIG. 7S", "result": "Synergistic"}]}, {"smiles": "CCN1/C(=C/C(C)=C/c2sc3ccccc3[n+]2CC)Sc2ccccc21", "note": "[JAC-B2.5, 3,3′-Diethyl-9-methylthiacarbocyanine iodide]", "values": [{"measurement": "solubility at 30 min", "setting": "[1]; BSA 40 mg/mL, read-out: Solubility of BSA-containing formulations after 30 min incubation at 18° C., 40 mg/mL", "result": "< 2000", "unit": "µg/mL"}, {"measurement": "solubility", "setting": "[1]; BSA 40 mg/mL, read-out: Solubility of BSA-containing formulations after overnight incubation at 18° C., 40 mg/mL", "result": "< 2000", "unit": "µg/mL"}, {"measurement": "solubility at 30 min", "setting": "[1]; BSA 60 mg/mL, read-out: Solubility of BSA-containing formulations after 30 min incubation at 18° C., 60 mg/mL", "result": "< 2000", "unit": "µg/mL"}, {"measurement": "solubility", "setting": "[1]; BSA 60 mg/mL, read-out: Solubility of BSA-containing formulations after overnight incubation at 18° C., 60 mg/mL", "result": "< 2000", "unit": "µg/mL"}, {"measurement": "solubility at 30 min", "setting": "[1]; BSA 80 mg/mL, read-out: Solubility of BSA-containing formulations after 30 min incubation at 18° C., 80 mg/mL", "result": "< 2000", "unit": "µg/mL"}, {"measurement": "solubility", "setting": "[1]; BSA 80 mg/mL, read-out: Solubility of BSA-containing formulations after overnight incubation at 18° C., 80 mg/mL", "result": "< 2000", "unit": "µg/mL"}, {"measurement": "solubility at 30 min", "setting": "[1]; BSA 100 mg/mL, read-out: Solubility of BSA-containing formulations after 30 min incubation at 18° C., 100 mg/mL", "result": "< 2000", "unit": "µg/mL"}, {"measurement": "solubility", "setting": "[1]; BSA 100 mg/mL, read-out: Solubility of BSA-containing formulations after overnight incubation at 18° C., 100 mg/mL", "result": "< 2000", "unit": "µg/mL"}, {"measurement": "solubility at 30 s", "setting": "[1]; BSA 40 mg/mL, read-out: Solubility of BSA-containing formulations post vortexing, 40 mg/mL", "result": "< 2000", "unit": "µg/mL"}, {"measurement": "solubility at 30 s", "setting": "[1]; BSA 60 mg/mL, read-out: Solubility of BSA-containing formulations post vortexing, 60 mg/mL", "result": "< 2000", "unit": "µg/mL"}, {"measurement": "solubility at 30 s", "setting": "[1]; BSA 80 mg/mL, read-out: Solubility of BSA-containing formulations post vortexing, 80 mg/mL", "result": "< 2000", "unit": "µg/mL"}, {"measurement": "solubility at 30 s", "setting": "[1]; BSA 100 mg/mL, read-out: Solubility of BSA-containing formulations post vortexing, 100 mg/mL", "result": "< 2000", "unit": "µg/mL"}, {"measurement": "solubility at 30 min", "setting": "[2]; aqueous with cosolvent or surfactant or cyclodextrin, 10% glycerol, read-out: Solubility of glycerol-containing formulations after 30 min incubation at 18° C., 10%", "result": "< 2000", "unit": "µg/mL"}, {"measurement": "solubility", "setting": "[2]; aqueous with cosolvent or surfactant or cyclodextrin, 10% glycerol, read-out: Solubility of glycerol-containing formulations after overnight incubation at 18° C., 10%", "result": "< 2000", "unit": "µg/mL"}, {"measurement": "solubility at 30 min", "setting": "[2]; aqueous with cosolvent or surfactant or cyclodextrin, 20% glycerol, read-out: Solubility of glycerol-containing formulations after 30 min incubation at 18° C., 20%", "result": "< 2000", "unit": "µg/mL"}, {"measurement": "solubility", "setting": "[2]; aqueous with cosolvent or surfactant or cyclodextrin, 20% glycerol, read-out: Solubility of glycerol-containing formulations after overnight incubation at 18° C., 20%", "result": "< 2000", "unit": "µg/mL"}, {"measurement": "solubility at 30 min", "setting": "[2]; aqueous with cosolvent or surfactant or cyclodextrin, 30% glycerol, read-out: Solubility of glycerol-containing formulations after 30 min incubation at 18° C., 30%", "result": "< 2000", "unit": "µg/mL"}, {"measurement": "solubility", "setting": "[2]; aqueous with cosolvent or surfactant or cyclodextrin, 30% glycerol, read-out: Solubility of glycerol-containing formulations after overnight incubation at 18° C., 30%", "result": "< 2000", "unit": "µg/mL"}, {"measurement": "solubility at 30 min", "setting": "[2]; aqueous with cosolvent or surfactant or cyclodextrin, 40% glycerol, read-out: Solubility of glycerol-containing formulations after 30 min incubation at 18° C., 40%", "result": "< 2000", "unit": "µg/mL"}, {"measurement": "solubility", "setting": "[2]; aqueous with cosolvent or surfactant or cyclodextrin, 40% glycerol, read-out: Solubility of glycerol-containing formulations after overnight incubation at 18° C., 40%", "result": "< 2000", "unit": "µg/mL"}, {"measurement": "solubility at 30 min", "setting": "[2]; aqueous with cosolvent or surfactant or cyclodextrin, 50% glycerol, read-out: Solubility of glycerol-containing formulations after 30 min incubation at 18° C., 50%", "result": "< 2000", "unit": "µg/mL"}, {"measurement": "solubility", "setting": "[2]; aqueous with cosolvent or surfactant or cyclodextrin, 50% glycerol, read-out: Solubility of glycerol-containing formulations after overnight incubation at 18° C., 50%", "result": "< 2000", "unit": "µg/mL"}, {"measurement": "solubility at 30 min", "setting": "[2]; 0% glycerol, read-out: Solubility of glycerol-containing formulations after 30 min incubation at 18° C., 0%", "result": "< 2000", "unit": "µg/mL"}, {"measurement": "solubility", "setting": "[2]; 0% glycerol, read-out: Solubility of glycerol-containing formulations after overnight incubation at 18° C., 0%", "result": "< 2000", "unit": "µg/mL"}, {"measurement": "solubility at 30 s", "setting": "[2]; aqueous with cosolvent or surfactant or cyclodextrin, 10% glycerol, read-out: Solubility of glycerol-containing formulations post vortexing, 10%", "result": "< 2000", "unit": "µg/mL"}, {"measurement": "solubility at 30 s", "setting": "[2]; aqueous with cosolvent or surfactant or cyclodextrin, 20% glycerol, read-out: Solubility of glycerol-containing formulations post vortexing, 20%", "result": "< 2000", "unit": "µg/mL"}, {"measurement": "solubility at 30 s", "setting": "[2]; aqueous with cosolvent or surfactant or cyclodextrin, 30% glycerol, read-out: Solubility of glycerol-containing formulations post vortexing, 30%", "result": "< 2000", "unit": "µg/mL"}, {"measurement": "solubility at 30 s", "setting": "[2]; aqueous with cosolvent or surfactant or cyclodextrin, 40% glycerol, read-out: Solubility of glycerol-containing formulations post vortexing, 40%", "result": "< 2000", "unit": "µg/mL"}, {"measurement": "solubility at 30 s", "setting": "[2]; aqueous with cosolvent or surfactant or cyclodextrin, 50% glycerol, read-out: Solubility of glycerol-containing formulations post vortexing, 50%", "result": "< 2000", "unit": "µg/mL"}, {"measurement": "solubility at 30 s", "setting": "[2]; 0% glycerol, read-out: Solubility of glycerol-containing formulations post vortexing, 0%", "result": "< 2000", "unit": "µg/mL"}]}]}
